Measured values from PubChem BioAssay (NCI).
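Where inhibition never reached the appropriate level, the endpoint shown equals the highest concentration tested. Otherwise, values were interpolated linearly from a five-concentration, 48-hour dose response in 96-well plates. GI50: concentration for 50% inhibition of growth. The concentration for full growth arrest is given as TGI.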

Assays:
Test in all cases: growth of human tumour cells (NCI), 48 h
HL-60(TB) leukemia = tested on: HL-60(TB) leukemia
SN12C renal = tested on: SN12C renal
CCRF-CEM leukemia = tested on: CCRF-CEM leukemia
MOLT-4 leukemia = tested on: MOLT-4 leukemia
SF-539 CNS = tested on: SF-539 CNS
SW-620 colon = tested on: SW-620 colon
SF-268 CNS = tested on: SF-268 CNS
HOP-62 NSCLC = tested on: HOP-62 NSCLC
SK-MEL-5 melanoma = tested on: SK-MEL-5 melanoma
KM12 colon = tested on: KM12 colon

| Compound | TGI (HL-60(TB) leukemia) [µM] | TGI (SN12C renal) [µM] | TGI (CCRF-CEM leukemia) [µM] | TGI (MOLT-4 leukemia) [µM] | TGI (SF-539 CNS) [µM] | TGI (SW-620 colon) [µM] | TGI (SF-268 CNS) [µM] | TGI (HOP-62 NSCLC) [µM] | TGI (SK-MEL-5 melanoma) [µM] | TGI (KM12 colon) [µM] | GI50 (HL-60(TB) leukemia) [µM] | GI50 (SN12C renal) [µM] | GI50 (CCRF-CEM leukemia) [µM] | GI50 (MOLT-4 leukemia) [µM] | GI50 (SF-539 CNS) [µM] | GI50 (SW-620 colon) [µM] | GI50 (SF-268 CNS) [µM] | GI50 (HOP-62 NSCLC) [µM] | GI50 (SK-MEL-5 melanoma) [µM] | GI50 (KM12 colon) [µM] |
| --- | --- | --- | --- | --- | --- | --- | --- | --- | --- | --- | --- | --- | --- | --- | --- | --- | --- | --- | --- | --- |
| O=C(O)\C=C/C=C/C=C/C=C/C(=O)O | > 100 | > 100 | > 100 | > 100 | > 100 | > 100 | > 100 | > 100 | > 100 | > 100 | – | – | – | – | – | – | – | – | – | – |
| Nc1ccc([As](=O)(O)O)cc1 | > 100 | > 100 | > 100 | > 100 | > 100 | > 100 | > 100 | > 100 | > 100 | > 100 | – | – | – | – | – | – | – | – | – | – |
| NS(=O)(=O)c1ccc(C(=O)O)cc1 | > 100 | > 100 | > 100 | > 100 | – | > 100 | > 100 | > 100 | > 100 | > 100 | – | – | – | – | – | – | – | – | – | – |
| CC(C)(c1ccccc1)c1ccc(Oc2ccc3c(c2)-c2nc-3nc3[nH]c(nc4nc(nc5[nH]c(n2)c2ccc(Oc6ccc(C(C)(C)c7ccccc7)cc6)cc52)-c2cc(Oc5ccc(C(C)(C)c6ccccc6)cc5)ccc2-4)c2ccc(Oc4ccc(C(C)(C)c5ccccc5)cc4)cc32)cc1 | > 100 | – | > 100 | > 100 | > 100 | > 100 | – | > 100 | > 100 | > 100 | – | – | – | – | – | – | – | – | – | – |
| Cn1ncc2c(=O)[nH]c(-c3ccccc3)nc21 | > 100 | > 100 | > 100 | > 100 | > 100 | > 100 | > 100 | – | > 100 | > 100 | – | – | – | – | – | – | – | – | – | – |
| CCCCCCCCCCCCCCC(C(=O)[O-])[n+]1ccccc1 (centres undefined) | > 100 | > 100 | > 100 | > 100 | > 100 | > 100 | > 100 | > 100 | > 100 | > 100 | – | – | – | – | – | – | – | – | – | – |
| Cc1cccc(NC(N)=S)c1 | > 100 | > 100 | > 100 | > 100 | > 100 | – | > 100 | > 100 | – | > 100 | – | – | – | – | – | – | – | – | – | – |
| N=C(N)SC(c1ccccc1)c1ccccc1 | 36.8 | 32.7 | 32.1 | 56.6 | 37.7 | 44.6 | 78.5 | 41.1 | 32.2 | 32.9 | – | – | – | – | – | – | – | – | – | – |
| CC1(C)CCCC2(C)C3=C(CCC12)C(=O)OC3 (centres undefined) | 67.9 | > 100 | > 100 | > 100 | > 100 | > 100 | > 100 | > 100 | > 100 | > 100 | – | – | – | – | – | – | – | – | – | – |
| O=C(Nc1ccc(-n2ccc3c(NC(=O)c4ccccc4)ncnc32)cc1)Nc1ccc(Cl)c(C(F)(F)F)c1 | 6.93 | 6.58 | 3.73 | 4.82 | 3.9 | 4.96 | 4.99 | 4.45 | 11.3 | 3.79 | 2.92 | 2.43 | 0.806 | 1.87 | 0.654 | 2.17 | 2.02 | 2.16 | 2.43 | 1.62 |
| Cc1cc(N2CCCCC2)nc(NCc2cc(Nc3ccnc4cc(Cl)ccc34)ccc2F)n1 | 3.97 | 3.62 | 4.33 | 4.82 | 3.04 | 3.59 | 3.11 | 2.89 | 2.25 | 3.29 | 1.93 | 1.67 | 0.921 | 1.67 | 1.58 | 1.45 | 1.35 | 1.4 | 1.05 | 1.69 |
| O=C1CC(c2ccccc2)NCCCCN2CC(CN1)C(C(O)c1ccccc1)C2=O (centres undefined) | > 100 | > 100 | > 100 | > 100 | > 100 | > 100 | > 100 | > 100 | > 100 | > 100 | – | – | – | – | – | – | – | – | – | – |
| CC1(C)CCc2cc3c(cc2O1)OC(C)(C)CC3=O | > 100 | > 100 | > 100 | > 100 | > 100 | > 100 | > 100 | > 100 | 52.2 | > 100 | – | – | – | – | – | – | – | – | – | – |
